Data set [1] is described as follows: Evaluation of solubility in organic solvents (visual observation of complete dissolution). The class given is physicochemical. The method, then: [Evaluation of Solubility] The evaluation of the solubility of the synthesized compound was conducted by the following method.
About 2-3 mg of the synthesized compound was precisely weighed, and each solvent was added to the compound such that a predetermined concentration of the solute (0.3 wt %, 0.2 wt %, 0.1 wt %) was reached. The resultant mixture was stirred for 30 minutes at a predetermined temperature, and then it was evaluated by visual appearance observation whether or not the solute (synthesized compound) was completely dissolved in the solvent, which was the result of the evaluation of the solubility. As the solvent, chloroform (boiling point 61° C.), toluene (boiling point 111° C.), anisole (boiling point 154° C.), mesitylene (boiling point 165° C.), ortho-dichlorobenzene (boiling point 181° C.) and 1-methylnaphthalene (boiling point 241° C.) were used.

A short description of data set [2]: Thermal weight loss analysis (initial decomposition temperature). Format: physicochemical.
[3] abbreviates: 1-methylnaphthalene, room temperature (25° C.).
Where [4] appears, read: chloroform, room temperature (25° C.).
[5] abbreviates: mesitylene, room temperature (25° C.).

With `CCCCCCN1C(=O)c2cc(-c3c4c(c(-c5cc6c(s5)C(=O)N(CCCCCC)C6=O)c5nsnc35)N=S=N4)sc2C1=O` [Compound (12-6)], the “solubility (concentration completely dissolved)” value (“solubility” below) in data set [1] (setting [3]) is no less than 0.1 wt %; in data set [1] (setting [4]) it was no less than 0.2 wt %; in data set [1] (mesitylene, 80° C.), no less than 0.3 wt %; in data set [1] (toluene, 80° C.) it was no less than 0.3 wt %. For the same compound, the initial decomposition temperature in data set [2] is 364 °C.
Turning to `CCCCCCCCN1C(=O)c2cc(-c3c4c(c(-c5cc6c(s5)C(=O)N(CCCCCCCC)C6=O)c5nsnc35)N=S=N4)sc2C1=O` [Compound (12-8)], the “solubility” value in data set [1] (setting [3]) is no less than 0.3 wt %; in data set [1] (setting [4]) it was no less than 0.2 wt %; in data set [1] (setting [5]), no less than 0.3 wt %; in data set [1] (toluene, room temperature (25° C.)), no less than 0.3 wt %. Moreover, the initial decomposition temperature in data set [2] was determined as 367 °C.
On to `CCCCCCCCCCCCN1C(=O)c2cc(-c3c4c(c(-c5cc6c(s5)C(=O)N(CCCCCCCCCCCC)C6=O)c5nsnc35)N=S=N4)sc2C1=O` [Compound (12-12)], for which the “solubility” value in data set [1] (setting [4]) is on record as no less than 0.1 wt %; in data set [1] (mesitylene, 60° C.), no less than 0.3 wt %; in data set [1] (toluene, 60° C.), no less than 0.3 wt %. Also, the initial decomposition temperature in data set [2] came out at 360 °C.
On to `CCCCC(CC)CN1C(=O)c2cc(-c3c4c(c(-c5cc6c(s5)C(=O)N(CC(CC)CCCC)C6=O)c5nsnc35)N=S=N4)sc2C1=O` (stereo not drawn) [Compound (12-EH)], for which the “solubility” value in data set [1] (setting [3]) is listed as no less than 0.3 wt %; in data set [1] (setting [4]), no less than 0.2 wt %; in data set [1] (mesitylene, 80° C.), no less than 0.3 wt %; in data set [1] (ortho-dichlorobenzene, room temperature (25° C.)) it was no less than 0.3 wt/o; in data set [1] (toluene, 60° C.), no less than 0.3 wt %. In data set [2], the initial decomposition temperature is 369 °C.
In the case of `O=C1c2cc(-c3c4c(c(-c5cc6c(s5)C(=O)N(CC(F)(F)C(F)(F)C(F)(F)F)C6=O)c5nsnc35)N=S=N4)sc2C(=O)N1CC(F)(F)C(F)(F)C(F)(F)F` [Compound (12-HepFBu)], the “solubility” value in data set [1] (anisole, room temperature (25° C.)) is no less than 0.1 wt %; in data set [1] (setting [4]), no less than 0.1 wt %; in data set [1] (setting [5]), no less than 0.1 wt %. In data set [2], this compound registered an initial decomposition temperature of 367 °C.
The compound `CN1C(=O)c2cc(-c3c4c(c(-c5cc6c(s5)C(=O)N(C)C6=O)c5nsnc35)N=S=N4)sc2C1=O` [Compound (12-Me)] returned an initial decomposition temperature in data set [2] of 367 °C.
On the same count and under the same terms, in the case of `CN1C(=O)c2cc3cc(-c4c5c(c(-c6cc7cc8c(cc7s6)C(=O)N(C)C8=O)c6nsnc46)N=S=N5)sc3cc2C1=O` [Compound (22-1)] it was 475 °C.
Regarding `CCCCCCN1C(=O)c2cc3cc(-c4c5c(c(-c6cc7cc8c(cc7s6)C(=O)N(CCCCCC)C8=O)c6nsnc46)N=S=N5)sc3cc2C1=O` [Compound (22-6)], the initial decomposition temperature in data set [2] amounted to 405 °C.
